Measurements: patent publication US20240279214A1, “ALPHA4 BETA7 INEGRIN ANTAGONISTS AND USES THEREOF” (XinThera, Inc., priority 2022, published 2024)

Biological target: T1, a4b7 integrin interaction with MadCAM-1 (Homo sapiens, UniProt P13612+P26010)
T1 construct: capture of a4b7 integrin expressing cells, RPMI8866; endogenous in cells; host or cells: RPMI8866
T1 sequence (P13612 34-1032): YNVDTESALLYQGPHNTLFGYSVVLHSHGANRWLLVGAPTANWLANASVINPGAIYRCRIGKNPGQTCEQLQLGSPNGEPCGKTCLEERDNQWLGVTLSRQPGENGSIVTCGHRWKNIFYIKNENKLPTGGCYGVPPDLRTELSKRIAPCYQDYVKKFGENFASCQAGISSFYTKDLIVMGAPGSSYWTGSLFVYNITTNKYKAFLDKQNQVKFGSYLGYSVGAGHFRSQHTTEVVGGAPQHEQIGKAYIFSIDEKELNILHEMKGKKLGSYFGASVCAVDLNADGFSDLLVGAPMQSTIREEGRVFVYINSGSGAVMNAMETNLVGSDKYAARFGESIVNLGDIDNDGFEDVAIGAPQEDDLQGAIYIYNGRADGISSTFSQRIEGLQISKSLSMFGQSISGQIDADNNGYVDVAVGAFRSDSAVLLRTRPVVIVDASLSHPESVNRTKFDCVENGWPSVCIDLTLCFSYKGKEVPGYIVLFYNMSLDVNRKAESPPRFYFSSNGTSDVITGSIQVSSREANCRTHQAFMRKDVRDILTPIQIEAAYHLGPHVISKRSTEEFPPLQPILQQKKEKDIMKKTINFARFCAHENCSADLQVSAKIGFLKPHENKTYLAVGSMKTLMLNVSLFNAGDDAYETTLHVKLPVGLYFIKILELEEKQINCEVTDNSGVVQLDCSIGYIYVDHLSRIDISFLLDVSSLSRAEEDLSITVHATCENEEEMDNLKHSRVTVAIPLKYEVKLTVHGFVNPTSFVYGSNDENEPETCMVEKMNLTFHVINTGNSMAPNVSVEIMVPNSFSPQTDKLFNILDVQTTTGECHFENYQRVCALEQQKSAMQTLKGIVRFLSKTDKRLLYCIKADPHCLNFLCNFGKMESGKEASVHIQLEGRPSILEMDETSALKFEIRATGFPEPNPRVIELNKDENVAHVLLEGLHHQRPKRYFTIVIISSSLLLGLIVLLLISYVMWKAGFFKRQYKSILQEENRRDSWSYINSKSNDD
T1 sequence (P26010 20-798): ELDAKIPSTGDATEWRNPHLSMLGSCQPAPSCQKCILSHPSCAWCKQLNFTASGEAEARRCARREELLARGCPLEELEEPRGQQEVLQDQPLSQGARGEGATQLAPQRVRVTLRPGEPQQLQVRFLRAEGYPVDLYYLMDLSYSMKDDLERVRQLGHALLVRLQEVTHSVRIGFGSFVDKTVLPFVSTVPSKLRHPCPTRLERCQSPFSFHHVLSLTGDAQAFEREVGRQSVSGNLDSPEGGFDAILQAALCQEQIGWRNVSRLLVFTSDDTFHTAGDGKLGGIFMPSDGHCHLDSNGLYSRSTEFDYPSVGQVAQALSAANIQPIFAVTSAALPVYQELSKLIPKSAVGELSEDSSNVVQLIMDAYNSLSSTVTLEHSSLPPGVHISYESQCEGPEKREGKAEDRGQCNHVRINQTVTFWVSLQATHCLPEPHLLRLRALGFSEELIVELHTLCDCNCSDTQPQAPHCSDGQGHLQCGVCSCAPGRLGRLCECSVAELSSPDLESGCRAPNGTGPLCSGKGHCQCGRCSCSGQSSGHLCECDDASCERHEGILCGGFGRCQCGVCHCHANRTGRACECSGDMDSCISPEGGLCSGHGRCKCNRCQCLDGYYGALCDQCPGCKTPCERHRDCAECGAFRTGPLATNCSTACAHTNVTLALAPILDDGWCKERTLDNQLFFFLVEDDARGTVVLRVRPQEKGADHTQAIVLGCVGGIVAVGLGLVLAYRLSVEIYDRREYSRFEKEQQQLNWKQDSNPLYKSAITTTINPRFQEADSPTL
Assay: a4b7 Cell Capture Assay (RPMI8866 cells on MAdCAM-1 Fc coated plates)
Type: cell-based
Conditions: 50% human serum, 1 mM MgCl2, 1 hour incubation, CellTiter-Glo luminescence, read-out: a4B7 cell capture assay RMPI8866-MadCAM EC50
Experimental: The potency of inhibitors in preventing a4b7 integrin interaction with MadCAM-1 was measured by monitoring the capture of a4b7 integrin expressing cells, RPMI8866, on recombinant human MAdCAM-1 Fc chimera protein-coated plates. The protein was a fusion between human MAdCAM-1 (Met1-Gln333, Accession #AAY82472) and human IgG1 (Pro100-Lys330)] (R&D Systems, Catalog #6056-MC). 96-well plates (Thermofisher, Catalog #136102) were coated with the recombinant protein by dispensing 100 μL (1.0 μg/mL) per well. After a quick spin to settle down the coating solution using a plate centrifuge, plates were incubated overnight at 4° C. in a moisture chamber. On Day 2, the plates were washed with PBS using a Bluecatbio Blue®Washer (GentleSpin wash, 3 cycles, pressure=1, volume 150 uL). Blocking solution (1.0% BSA in PBS, Sigma, Catalog #A7979) was then added at 200 uL/well, and the plates were quickly spun to settle down blocking buffer and incubated in cell culture incubator at 37° C. and 5% CO2 for 1 hour. The plates were then washed with 0.1% BSA in PBS using a Bluecatbio Blue®Washer (GentleSpin wash, 3 cycles, pressure=1, volume 150 uL). RPMI8866 cells suspended in assay medium (1 mM MgCl2 25 mM HEPES and 50% human serum, Sigma, Catalog #H4522) at a density of 1.0×10^6 cells/mL were added at 100 uL/well. Each compound evaluated was prepared as a DMSO stock solution. Test compounds were evaluated with a 9-point serial dilution curve (1000, 333.3, 111.1, 55.6, 27.8, 13.9, 6.9, 2.3, and 0.77 nM)) and were added to the plates using a Tecan D.30e Digita dispenser, the dispensed stock is 100 nL and the final DMSO concentration is 0.1%. Potent compounds were re-evaluated at a new 9-point serial dilution curve (100, 33.3, 11.1, 5.6, 2.8, 1.4, 0.69, 0.23, and 0.08 nM). Each titration curves were performed in triplicate on the same plate, and most of compounds were retested in different dates multiple times. The plates were shaken at 300 rpm on orbital plate shaker for 3 minutes to mix the cells and compounds, quickly spun to settle the cells and solution, and incubated in cell culture incubator at 37° C. and 5% CO2. After 1 hour incubation, the unbound cells were washed away with RPMI1640 medium supplemented with 1 mM MgCl2 and 1% BSA) (wash buffer) using a Bluecatbio Blue®Washer (MagbeadsSpin wash, 1 cycle, pressure 1, volume=150 uL). After wash buffer removal, A mixture of wash buffer/CellTiter-Glo® Reagent (Pormega, catalog #G7573) at 1:1 (V/V) was added at volume of 100 uL to each well. The plates were placed in a chamber at 25° C. and incubated for 30 minutes. Luminescence was recorded using a Envision plate reader 2105 according to CellTiter-Glo protocol.
The mean luminescence signals from negative control wells without MadCAM-1 coating and compound treatment (cells only) was defined as 100% binding inhibition, and the mean luminescence signals from positive control wells with MadCAM-1 coating but without compound treatment (MadCAM-1 and cells only) was defined as 0% binding inhibition. The luminescence signals from other compound treated wells were normalized in percentage scale accordingly. The normalized mean % inhibition data were plotted against logarithmic compound concentration in nanomolar and were fitted with 4-parameter logistic model to obtain IC50 for each compound.

SMILES	EC50 [nM]
Cc1cc(C)c2c(c1)Oc1ccc(F)c(c1)[C@H](n1cc(CCN3CC(F)C3)c(C(F)(F)F)cc1=O)C(=O)N[C@@H](CC(=O)O)c1cc-2cc(C)c1F (relative stereo) [Example 27, [(14R*,17S)-12,19-difluoro-14-{5-[2-(3-fluoroazetidin-1-yl)ethyl]-2-oxo-4-(trifluoromethyl)pyridin-1-yl}-3,5,20-trimethyl-15-oxo-8-oxa-16-azatetracyclo[16.3.1.1^{9,13}.0^{2,7}]tricosa-1(22),2(7),3,5,9,11,13(23),18,20-nonaen-17-yl]acetic acid]	3.7
Cc1cc2cc(c1F)[C@H](CC(=O)O)NC(=O)[C@@H](n1cc(CCN3CC(F)C3)c(C(F)(F)F)cc1=O)c1cc(ccc1F)Oc1cccc(C(F)(F)F)c1-2 (relative stereo) [Example 28, [(14R*,17S)-12,19-difluoro-14-{5-[2-(3-fluoroazetidin-1-yl)ethyl]-2-oxo-4-(trifluoromethyl)pyridin-1-yl}-20-methyl-15-oxo-3-(trifluoromethyl)-8-oxa-16-azatetracyclo[16.3.1.1^{9,13}.0^{2,7}]tricosa-1(22),2(7),3,5,9,11,13(23),18,20-nonaen-17-yl]acetic acid]	19
Cc1cc2cc(c1F)[C@H](CC(=O)O)NC(=O)[C@@H](n1cc(CCN3CC(F)C3)c(C(F)(F)F)cc1=O)c1cc(ccc1F)Oc1ccc(F)c(C)c1-2 (relative stereo) [Example 30, [(14R*,17S)-4,12,19-trifluoro-14-{5-[2-(3-fluoroazetidin-1-yl)ethyl]-2-oxo-4-(trifluoromethyl)pyridin-1-yl}-3,20-dimethyl-15-oxo-8-oxa-16-azatetracyclo[16.3.1.1^{9,13}.0^{2,7}]tricosa-1(22),2(7),3,5,9,11,13(23),18,20-nonaen-17-yl]acetic acid]	2.6
Cc1ccc2c(c1C)-c1cc(C)c(F)c(c1)[C@H](CC(=O)O)NC(=O)[C@@H](n1cc(CCN3CC(F)C3)c(C(F)(F)F)cc1=O)c1cc(ccc1F)O2 (relative stereo) [Example 33, [(14R*,17S)-12,19-difluoro-14-{5-[2-(3-fluoroazetidin-1-yl)ethyl]-2-oxo-4-(trifluoromethyl)pyridin-1-yl}-3,4,20-trimethyl-15-oxo-8-oxa-16-azatetracyclo[16.3.1.1^{9,13}.0^{2,7}]tricosa-1(22),2(7),3,5,9,11,13(23),18,20-nonaen-17-yl]acetic acid]	50
Cc1cc2cc(c1F)[C@H](CC(=O)O)NC(=O)[C@@H](n1cc(CCN3CC(F)C3)c(C(F)(F)F)cc1=O)c1cc(Cl)cc(c1)Oc1ccc(F)c(C)c1-2 (relative stereo) [Example 34, [(14R*,17S)-11-chloro-4,19-difluoro-14-{5-[2-(3-fluoroazetidin-1-yl)ethyl]-2-oxo-4-(trifluoromethyl)pyridin-1-yl}-3,20-dimethyl-15-oxo-8-oxa-16-azatetracyclo[16.3.1.1^{9,13}.0^{2,7}]tricosa-1(22),2(7),3,5,9,11,13(23),18,20-nonaen-17-yl]acetic acid]	23

Stronger by EC50, values ahead:

EC50 [nM]	SMILES
1.9	Cc1cccc2c1-c1cc(F)c(F)c(c1)[C@H](CC(=O)O)NC(=O)[C@@H](n1cc(CCN3CC(F)C3)c(C(F)(F)F)cc1=O)c1cc(ccc1F)O2 (relative stereo) [Example 31, [(14R*,17S)-12,19,20-trifluoro-14-{5-[2-(3-fluoroazetidin-1-yl)ethyl]-2-oxo-4-(trifluoromethyl)pyridin-1-yl}-3-methyl-15-oxo-8-oxa-16-azatetracyclo[16.3.1.1^{9,13}.0^{2,7}]tricosa-1(22),2(7),3,5,9,11,13(23),18,20-nonaen-17-yl]acetic acid]
1.3	Cc1cc2cc(c1F)[C@H](CC(=O)O)NC(=O)[C@@H](n1cc(CCN3CC(F)C3)c(C(F)(F)F)cc1=O)c1cc(ccc1F)Oc1cc(F)cc(C)c1-2 (relative stereo) [Example 26, [(14R*,17S)-5,12,19-trifluoro-14-{5-[2-(3-fluoroazetidin-1-yl)ethyl]-2-oxo-4-(trifluoromethyl)pyridin-1-yl}-3,20-dimethyl-15-oxo-8-oxa-16-azatetracyclo[16.3.1.1^{9,13}.0^{2,7}]tricosa-1(22),2(7),3,5,9,11,13(23),18,20-nonaen-17-yl]acetic acid]
0.07	Cc1cc2cc(c1F)[C@H](CC(=O)O)NC(=O)[C@@H](n1cc(CCN(C)C)c(C(F)(F)F)cc1=O)c1cc(ccc1F)Oc1cccc(C)c1-2 (relative stereo) [Example 29, [(14R*,17S)-14-{5-[2-(dimethylamino)ethyl]-2-oxo-4-(trifluoromethyl)pyridin-1-yl}-12,19-difluoro-3,20-dimethyl-15-oxo-8-oxa-16-azatetracyclo[16.3.1.1^{9,13}.0^{2,7}]tricosa-1(22),2(7),3,5,9,11,13(23),18,20-nonaen-17-yl]acetic acid]
